Reference: ChEMBL document CHEMBL3046729, “Design, synthesis, and cytotoxic activities of new 2,4,5-triarylimidazoles” (Med Chem Res, 2013)

Legend:
MDA-MB-231 = test: Cytotoxicity against Homo sapiens (human) MDA-MB-231 cells assessed as inhibition of cell proliferation after 72 hr by MTT assay; format: functional, cell-based; settings: MDA-MB-231, 72 h
T47D = test: Cytotoxicity against Homo sapiens (human) T47D cells assessed as inhibition of cell proliferation after 72 hr by MTT assay; format: functional, cell-based
MCF7 = test: Cytotoxicity against Homo sapiens (human) MCF7 cells assessed as inhibition of cell proliferation after 72 hr by MTT assay; format: functional, cell-based; settings: MCF7, 72 h
MCF7 (Homo sapiens) = test: Cytotoxicity against Homo sapiens (human) MCF7 cells assessed as inhibition of cell proliferation after 72 hr by MTT assay; settings: MCF7, 72 h

SMILES	IC50 (MDA-MB-231) [µM]	IC50 (T47D) [µM]	IC50 (MCF7) [µM]	IC50 (MCF7 (Homo sapiens)) [µM]
Oc1ccc(-c2nc(-c3ccc(OCCN4CCCCC4)cc3)c(-c3ccccc3)[nH]2)cc1	< 0.1	< 0.1	< 0.1	–
CN(C)CCOc1ccc(-c2nc(-c3ccccc3)[nH]c2-c2ccccc2)cc1	53	50	–	–
COc1ccc(-c2nc(-c3ccc(OCCN(C)C)cc3)c(-c3ccccc3)[nH]2)cc1	42	28	–	–
Fc1ccc(-c2nc(-c3ccc(OCCN4CCCCC4)cc3)c(-c3ccccc3)[nH]2)cc1	78	61	> 100	–
CN(C)CCOc1ccc(-c2nc(-c3ccc(F)cc3)[nH]c2-c2ccccc2)cc1	–	61	–	82
c1ccc(-c2nc(-c3ccc(OCCN4CCCCC4)cc3)c(-c3ccccc3)[nH]2)cc1	< 0.1	< 0.1	< 0.1	–
CC/C(=C(\c1ccccc1)c1ccc(OCCN(C)C)cc1)c1ccccc1 [TAMOXIFEN]	25.1	12.1	55.5	–
CN(C)CCOc1ccc(-c2nc(-c3ccc(O)cc3)[nH]c2-c2ccccc2)cc1	70	63	82	–
COc1ccc(-c2nc(-c3ccc(OCCN4CCCCC4)cc3)c(-c3ccccc3)[nH]2)cc1	65	54	71	–
